This passage reports Ki results from patent US8592383B2, “Cycloalkyl-fused tetrahydroquinolines as CRTH2 receptor modulators” (Merck Sharp & Dohme Corp., priority 2011, dated 2013).

Molecules are shown by their SMILES.

The term Ki denotes a dissociation constant, usually derived from enzyme kinetics or from competition with a known ligand. A higher Ki goes with lower affinity.

The experiment has as its target T1, hCRTH2 (Homo sapiens, UniProt Q9Y5Y4).
T1 sequence (Q9Y5Y4 1-395): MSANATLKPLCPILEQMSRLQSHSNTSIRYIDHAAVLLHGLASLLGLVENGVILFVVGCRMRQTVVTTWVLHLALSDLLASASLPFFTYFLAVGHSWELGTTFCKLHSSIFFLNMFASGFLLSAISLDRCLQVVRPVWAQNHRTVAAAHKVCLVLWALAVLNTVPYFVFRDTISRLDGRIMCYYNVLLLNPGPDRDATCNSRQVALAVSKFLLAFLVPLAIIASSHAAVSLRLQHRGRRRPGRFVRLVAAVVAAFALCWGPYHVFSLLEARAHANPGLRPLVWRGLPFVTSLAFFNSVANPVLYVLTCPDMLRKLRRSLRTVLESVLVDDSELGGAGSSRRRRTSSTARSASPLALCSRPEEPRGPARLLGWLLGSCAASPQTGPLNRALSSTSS
Put plainly: biochemical. Particulars: Ki, Radioligand Binding Assay A; 3.0 nM [3H]PGD2, HEK-hCRTH2 membranes.
Description: Competing ligands were diluted in dimethylsulfoxide (Me2SO) that was kept constant at 1% (v/v) of the final incubation volume. The reaction was initiated by the addition of 8-20 g of membrane protein prepared from a human embryonic kidney (HEK)-hCRTH2 cell line. Total and non-specific binding were determined in the absence and the presence of 10 μM PGD2, respectively. Under these conditions, specific binding (total minus non-specific) of the radioligand to the receptor reached equilibrium within 50 min and was stable up to 180 min. The reaction was routinely conducted for 60 min at room temperature and terminated by rapid filtration through prewetted (0.3% polyethyleneimine) 96-well printed Filtermate™ (Wallac) using a Tomtec® harvester (Hamden, Conn.). After washing with cold buffer, the filter was dried for 2 minutes in microwave, and Meltilex Scintillator sheet (Wallac) was melted on for 2 min.
`O=C(O)CCCN(C1CC1)C1c2ccccc2N(C(=O)OCc2ccccc2)C2CCCC21` (single isomer, unassigned) [compound 60, 4-(phenylmethyl) cis, cis-[(3-carboxypropyl)cyclopropylamino]-1,2,3,3a,9,9a-hexahydro-4H-cyclopenta[b]quinoline-4-carboxylate] had an inhibition constant Ki of 21.2 nM.

`CCN(C(=O)CCC(=O)O)C1c2ccccc2N(C(=O)C2CC2c2ccccc2)C2CCCC12` (single isomer, unassigned) [compound 69, 4-[ethyl[cis, cis-2,3,3a,4,9,9a-hexahydro-4-[(2-phenyl-1-cyclopropyl)carbonyl]-1H-cyclopenta[b]quinolin-9-yl]amino]-4-oxobutanoic acid] showed a Ki of 4.97 nM.

The molecule `CCN(C(=O)CCC(=O)O)C1c2ccccc2N(C(=O)OCc2ccc(F)c(F)c2)C2CCCC12` (single isomer, unassigned) [compound 72, 4-[(3,4-difluorophenyl)methyl] cis, cis-[(3-carboxy-1-oxopropyl)ethylamino]-1,2,3,3a,9,9a-hexahydro-4H-cyclopenta[b]quinoline-4-carboxylate] had an inhibition constant Ki of 15.7 nM.

Take `O=C(O)CCC(=O)N(C1CC1)C1c2cc(F)ccc2N(C(=O)c2ccc(OC(F)(F)F)cc2)C2CCCC21` (single isomer, unassigned) [compound 134, 4-[cyclopropyl[cis, cis-7-fluoro-2,3,3a,4,9,9a-hexahydro-4-[4-(trifluoromethoxy)benzoyl]-1H-cyclopenta[b]quinolin-9-yl]amino]-4-oxobutanoic acid]: the affinity, expressed as Ki, was 236 nM.

For the molecule `O=C(O)CCC(=O)N(C1CC1)[C@H]1c2cc(F)ccc2N(C(=O)c2ccc(OC(F)(F)F)cc2)[C@H]2CCC[C@H]21` [compound 17, 4-(cyclopropyl((3aS,9R,9aR)-7-fluoro-4-(4-(trifluoromethoxy)benzoyl)-2,3,3a,4,9,9a-hexahydro-1H-cyclopenta[b]quinolin-9-yl)amino)-4-oxobutanoic acid], affinity was put at a Ki of 5.1 nM.
